Reference: patent US12145927B2 (BRISTOL-MYERS SQUIBB COMPANY, priority 2018, dated 2024)

What was measured:
[1] = target: T1, indoleamine 2,3-dioxygenase (IDO) (Homo sapiens, UniProt P14902); test: HeLa cell-based indoleamine 2,3-dioxygenase (IDO) assay (IDO1 HeLa); conditions: HeLa cells, IFNγ 25 ng/mL, 48 hour incubation; kynurenine by absorbance at 480 nm
T1 construct: replaced with media containing IFNγ (#285-IF/CF, R&D Systems) at a final concentration of 25 ng/mL; endogenous in cells; host or cells: HeLa (ATCC CCL-2), IFNγ-stimulated
Protocol: Assessment of inhibitor activity in HeLa cell-based indoleamine 2,3-dioxygenase (IDO) assay:
HeLa (ATCC® CCL-2) cells were obtained from the ATCC® and cultured in Dulbecco's Modified Eagle Medium supplemented with 4.5 g/L glucose, […] (#10-013-CV, Corning), 2 mM L-alanyl-L-glutamine dipeptide (#35050-061, Gibco), 100U/mL penicillin, 100 μg/mL streptomycin (#SV30010, HyClone) and 10% fetal bovine serum (#SH30071.03 HyClone). Cells were maintained in a humidified incubator at 37° C. in 5% CO2.
IDO activity was assessed as a function of kynurenine production as follows: HeLa cells were seeded in a 96-well culture plate at a density of 5,000 cells/well and allowed to equilibrate overnight. After 24 hours, the media was aspirated and replaced with media containing IFNγ (#285-IF/CF, R&D Systems) at a final concentration of 25 ng/mL. A serial dilution of each test compound was added to the cells in a total volume of 200 μL of culture medium. After a further 48 hour incubation, 170 μL of supernatant was transferred from each well to a fresh 96-well plate. 12.1 μL of 6.1N trichloroacetic acid (#T0699, Sigma-Aldrich) was added to each well and mixed, followed by incubation at 65° C. for 20 minutes to hydrolyze N-formylkynurenine, the product of indoleamine 2,3-dioxygenase, to kynurenine. The reaction mixture was then centrifuged for 10 mins at 500×g to sediment the precipitate. 100 μL of the supernatant was transferred from each well to a fresh 96-well plate. 100 μl of 2% (w/v) p-dimethylaminobenzaldehyde (#15647-7, Sigma-Aldrich) in acetic acid (#A6283, Sigma-Aldrich) was added to each well mixed and incubated at RT for 20 mins. Kynurenine concentrations were determined by measuring absorbance at 480 nm and calibrating against an L-kynurenine (#K8625, Sigma-Aldrich) standard curve using a SPECTRAMAX® M2e microplate reader (Molecular Devices). The percentage activity at each inhibitor concentration was determined and IC50 values assessed using nonlinear regression.

human IDO1 = target: T2, human IDO1 (Homo sapiens, UniProt P14902); test: IDO inhibition assay in human IDO1/HEK293 cells (IDO1 HEK Human); format: cell-based; conditions: HEK293 cells stably expressing human IDO1; 20 hours incubation; absorbance at 490 nm after Ehrlich reagent
T2 construct: expressed in transfected cells
Summary of the method: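 Kynurenine output of stably IDO1-transfected HEK293 cells was measured by absorbance at 490 nm after mixing supernatant with 0.2% Ehrlich reagent, following TCA stop (0.2% final, 50° C., 30 min). Cells were incubated 20 hours with compound. Inhibition was scaled between DMSO and 500 nM reference standard.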

T1 sequence (P14902 whole entry): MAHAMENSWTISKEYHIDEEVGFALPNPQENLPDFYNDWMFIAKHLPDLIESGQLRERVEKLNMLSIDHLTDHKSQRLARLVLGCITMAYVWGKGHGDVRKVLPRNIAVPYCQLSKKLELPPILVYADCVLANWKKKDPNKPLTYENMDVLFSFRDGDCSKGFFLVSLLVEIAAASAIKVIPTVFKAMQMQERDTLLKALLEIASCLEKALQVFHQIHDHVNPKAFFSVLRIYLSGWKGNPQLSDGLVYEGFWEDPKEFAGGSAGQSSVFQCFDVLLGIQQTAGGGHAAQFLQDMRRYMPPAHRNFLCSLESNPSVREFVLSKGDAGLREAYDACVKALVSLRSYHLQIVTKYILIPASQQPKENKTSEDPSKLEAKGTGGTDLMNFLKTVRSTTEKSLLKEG
T2 sequence (P14902 whole entry): as above

| Compound | IC50 [1] | IC50 (human IDO1) |
| --- | --- | --- |
| Cc1ccc(NC(=O)Nc2cc(-c3ccccc3-c3nnn[nH]3)cc3c2OC[C@@H](C)C[C@H]3c2ccccc2)cc1 (racemic) [Example 109, (+/−)-1-((cis)-7-(2-(1H-tetrazol-5-yl)phenyl)-3-methyl-5-phenyl-2,3,4,5-tetrahydrobenzo[b]oxepin-9-yl)-3-(p-tolyl)urea] | 5.9 nM | – |
| Cc1ccc(NC(=O)Nc2cc(-c3ccccc3-c3nnn[nH]3)cc3c2OCC(F)(F)CC3c2ccccc2)cc1 (racemic) [Example 110, (+/−) 1-(7-(2-(1H-tetrazol-5-yl)phenyl)-3,3-difluoro-5-phenyl-2,3,4,5-tetrahydrobenzo[b]oxepin-9-yl)-3-(p-tolyl)urea] | 24.7 nM | 50.2 nM |
| Cc1ccc(NC(=O)Nc2cc(-c3ccccc3-c3nnn[nH]3)cc3c2OCCCC3C(C)C)cc1 (single isomer, unassigned) [24 (En. 1), 1-(7-(2-(1H-tetrazol-5-yl)phenyl)-5-isopropyl-2,3,4,5-tetrahydrobenzo[b]oxepin-9-yl)-3-(p-tolyl)urea] | 28.9 nM | 0.98 nM |
| COCC(CC(=O)O)c1cc(Nc2ccc(C#N)cc2)c2c(c1)C(C1CC1)CCCO2 (single isomer, unassigned) [131 (dia. 2), 3-(9-(4-Cyanophenylamino)-5-cyclopropyl-2,3,4,5-tetrahydrobenzo[b]oxepin-7-yl)-4-methoxybutanoic acid] | 2.1 nM | 2 nM |
| Cc1ccc(NC(=O)Nc2cc(-c3ccccc3-c3noc(=O)[nH]3)cc3c2OCCCC3c2ccccc2)cc1 (single isomer, unassigned) [Example 67, 1-(7-(2-(5-oxo-4,5-dihydro-1,2,4-oxadiazol-3-yl)phenyl)-5-phenyl-2,3,4,5-tetrahydrobenzo[b]oxepin-9-yl)-3-(p-tolyl)urea] | 1 nM | 1.1 nM |
| Cc1ccc(-c2nnn[nH]2)c(-c2cc(Nc3ccc4nc(C)sc4c3)c3c(c2)C(c2ccccc2)CCCO3)c1 (single isomer, unassigned) [Example 74, 2-methyl-N-(7-(5-methyl-2-(1H-tetrazol-5-yl)phenyl)-5-phenyl-2,3,4,5-tetrahydrobenzo[b]oxepin-9-yl)benzo[d]thiazol-6-amine] | 5.1 nM | 7.7 nM |
| Cc1ccc(NC(=O)Nc2cc(-c3ccccc3-c3nn[nH]n3)cc3c2OCCCC3c2ccccc2)cc1 (centres unmarked) [Example 1, 1-(7-(2-(1H-tetrazol-5-yl)phenyl)-5-phenyl-2,3,4,5-tetrahydrobenzo[b]oxepin-9-yl)-3-(p-tolyl)urea] | 13.9 nM | 18.7 nM |

Further compounds by falling IC50 [1], results first:

| IC50 [1] | IC50 (human IDO1) | Compound |
| --- | --- | --- |
| 161 nM | 6.3 nM | Cc1ccc(NC(=O)Nc2cc(-c3ccccc3-c3nnn[nH]3)cc3c2OCCCC3C(C)C)cc1 (single isomer, unassigned) [24 (En. 2), 1-(7-(2-(1H-tetrazol-5-yl)phenyl)-5-isopropyl-2,3,4,5-tetrahydrobenzo[b]oxepin-9-yl)-3-(p-tolyl)urea] |
| 24.2 nM | – | Fc1cc(Nc2cc(-c3ccccc3-c3nnn[nH]3)cc3c2OCCCC3c2ccccc2)ccc1Cl (single isomer, unassigned) [Example 72, 7-(2-(1H-tetrazol-5-yl)phenyl)-N-(4-chloro-3-fluorophenyl)-5-phenyl-2,3,4,5-tetrahydrobenzo[b]oxepin-9-amine] |
| 14.9 nM | 10.4 nM | Cc1ccc(NC(=O)Nc2cc(-c3ccccc3-c3nnn[nH]3)cc3c2OCCCC3C2CC2)cc1 (single isomer, unassigned) [36 (En. 1), 1-(7-(2-(1H-tetrazol-5-yl)phenyl)-5-cyclopropyl-2,3,4,5-tetrahydrobenzo[b]oxepin-9-yl)-3-(p-tolyl)urea] |
| 3.6 nM | 2.4 nM | Cc1ccc(NC(=O)Nc2cc(-c3ccccc3-c3nnn[nH]3)cc3c2OCCCC3C2CC2)cc1 (single isomer, unassigned) [36 (En. 2), 1-(7-(2-(1H-tetrazol-5-yl)phenyl)-5-cyclopropyl-2,3,4,5-tetrahydrobenzo[b]oxepin-9-yl)-3-(p-tolyl)urea] |
